Read-outs that look alike come from different tables or passages of the source.
What was measured:
THP-1 cells = experiment: THP-1 repression of TNFα/IFNγ-induced MCP-1, IL-6, IL-8 release; assay type: cell-based, human; conditions: for IC50: Homo sapiens, THP-1, TNFα (60 ng/ml)/IFNγ (40 ng/ml); for Max. eff., IL-6 repression / Max. eff., IL-8 repression / Max. eff., MCP-1 repression: THP-1, I/T, prednisolone = 100%
Protocol: After 6 hours total RNA was isolated and further processed for microarray hybridization as described for the HepG2 cells. The data from all microarray experiments have been deposited in the NCBI Gene Expression Omnibus (GEO) under accession number (identifier will be included in proof). […] Expression of FKBP51, MCP-1, IL-6 and IL-8 protein was measured by specific […]; #A[…] [MCP-1], #A[…] [IL-6] and #A[…] [IL-8]) according to the manufacturer manual. […] Expression of FKBP51, DUSP1 and GILZ was measured by Q-PCR according to the same procedure as described for the HepG2 cells. In this case the following primer-pairs were used: for GAPDH: [NT] and [NT]; for FKBP51: [NT] and [NT]; for DUSP1: [NT] and [NT]; for GILZ: [NT] and [NT]. For the evaluation of protein expression, cells were incubated overnight with a whole dose range of compounds. Supernatants were collected to determine cytokine levels and cell lysates were generated by repeated freeze-thaw cycles to measure expression of FKBP51 protein. Expression of FKBP51, MCP-1, IL-6 and IL-8 was measured by specific […]; #A[…] [MCP-1], #A[…] [IL-6] and #A[…] [IL-8]) according to the manufacturer manual. […] Samples were incubated for 60 min at 23 C. […] Plates were measured using an EnVision-Alpha Reader.

[1] = tested on: muscle tissue from arthritic mice; experiment: Microarray on muscle tissue mRNA from CIA mice; assay type: in vivo, mouse; conditions: day 21, 2.5 hours after final oral dose, 1.5 mg/kg prednisolone or 0.3 mg/kg Org 214007-0, prednisolone = 100%
Text: Besides these groups of mice, one group of healthy mice (sham-immunized and vehicle-treated) was included. Collected tissue was used to isolate mRNA for microarray analysis. […] We also calculated a mean fold change for all induced and repressed genes by both compounds derived from this microarray. […] Two and a half hours after the final treatment animals were sacrificed and samples were collected from the thigh muscle (musculus tensor fasciae latae and musculus rectus femoris). Samples were stored immediately at −80°C and send to Covance (Princeton, New Jersey) for RNA extraction and subsequent analysis of gene expression on the Mouse Genome 430A 2.0 array. For statistical analysis, the. CEL files obtained after hybridization were analyzed with the R (www.r-project.org) and the BioConductor software package (www.bioconductor.org) as described previously. Normalization was done using gcrma. Building of the experimental design and calculation of the ratios was done with the limma package. Differentially expressed probe sets were selected on basis of the fold change and the adjusted p-value (Benjamini-Hochberg correction). Multivariate data analysis and clustering was done with standard methods in the R software package (www.r-project.org). A therapeutic index for Org 214007-0 was calculated in the same way as was described for the THP-1 microarray data.

[2] = tested on: human neonatal foreskin fibroblasts; experiment: BioMAP assay HDF3CGF; assay type: cell-based; conditions: 1 μM, prednisolone = 100%
Protocol: Next, effects of Org 214007-0 on the cytokine release by primary human whole blood cells treated with either LPS or anti-CD28/PMA were tested. […] These assays make use of different types of primary human cells, in this case coronary artery smooth muscle cells and neonatal foreskin fibroblasts, in an inflammatory environment, [28]. […] When all repressed and induced proteins are taken into account, a relative TI value for Org 214007-0 could be deduced of 1.7 in coronary artery smooth muscle cells and of 2.2 in neonatal foreskin fiboblasts.

LPS-induced TNFα release = experiment: LPS-induced TNFα acute inflammation mouse model; assay type: in vivo; conditions: oral; for ED50: Mus musculus, 1 hour before LPS i.p., Balb/c mice, read-out: ED50, inhibition of LPS-induced serum TNFα
Protocol: For both the LPS-induced TNFα as well as the anti-CD3 induced IL-2 model, female Balb/c mice of 8–12 week old were used. Mice were treated orally with 0.2 ml compound or vehicle (water/mannitol (5%) with 5% DMSO/5% chremophore for the LPS model or with 0.5% gelatine for the anti-CD3 model). One hour after oral treatment animals were challenged i.p. with 0.2 ml of either 20 μg/mouse LPS (Sigma, E. coli serotype 055:B5) or 5 µg/mouse hamster anti-CD3 monoclonal (BD Biosciences Pharmingen, art. nr. 553057, clone 145-2C11). Ninety minutes after LPS injection or 3 hours after anti-CD3 challenge, blood samples were collected and serum levels of TNFα or IL-2 were determined via specific ELISAs (BD Biosciences Pharmingen, San Diego, CA, USA). In the experiment that included treatment with RU486 to block GR, mice were dosed subcutaneously with 50 mg/kg RU486 30 minutes before the oral compound dosing. ED50 and % efficacy (maximal percentage inhibition of TNFα or IL-2 release) are determined using a 3 parameter sigmoidal curve calculation. Statistical analysis of the results was performed using an one-way ANOVA (log) test.

Pharmacokinetics in mice = assay type: in vivo, mouse; conditions: for half-life: read-out: T1/2 eli (converted); for C0: extrapolated to T=0, read-out: Cmax; for Tmax: female Balb/c mice
Protocol: For each time-point 3 female Balb/c mice are used. Tmax = Time of maximum observed concentration (in case of i.v. administration Tmax = 0 h); time is expressed in hours (h). Cmax = concentration corresponding to Tmax and expressed in nmol/ml, for i.v. dosing Cmax is extrapolated to T=0. T 1/2 eli(mination) (terminal half-life) = ln(2)/λz expressed in h(ours). AUClast = Area under the curve from the time of dosing (Dosing-time) to the last measurable concentration. AUCinf = predicted Area Under the Curve from the time of dosing extrapolated to infinity and expressed in “h*nmol/ml”. Vz = Volume of distribution based on the terminal phase = Dose / λz* AUCinf and expressed inL/kg. Cl = total body clearance = Dose / AUCinf and expressed in L/h/kg. MRTinf = mean residence time (MRT) extrapolated to infinity for non-infusion models, expressed in h. Vss = gives an estimate of the volume of distribution at steady-state and is expressed in L/kg. […] The bioavailability is expressed in %. i.v. = intraveneously, p.o. = per oral

[3] = female, Balb/c, mouse, in vivo, iv, 4 umol/kg, 4 μmol/kg i.v.
[4] = female, Balb/c, mouse, in vivo, po, 10 umol/kg, 10 μmol/kg p.o.
[5] = female, Balb/c, mouse, in vivo, iv, 10 umol/kg, 10 μmol/kg i.v.
[6] = female, Balb/c, mouse, in vivo, po, 20 umol/kg, 20 μmol/kg p.o.

For `Cc1nnsc1C(=O)N[C@H]1CCN2c3ccc(C#N)cc3[C@@H](C)c3ccccc3[C@@H]2C1` [Org 214007-0], the IC50 (THP-1 cells; read-out: IC50, IL-6 release) was 9.3 nM, the IC50 (THP-1 cells; read-out: IC50, IL-8 release) was 11 nM and the IC50 (THP-1 cells; read-out: IC50, MCP-1 release) was 23.5 nM. For the same compound, the “Max. eff., IL-6 repression” value (THP-1 cells) was 78 (±9) %, the “Max. eff., IL-8 repression” value (THP-1 cells) was 74 (±10) % and the “Max. eff., MCP-1 repression” value (THP-1 cells) was 44 (±8) %. For the same compound, the “Max. eff., mean induction of genes, microarray” value [1] was 25.7%, the “Max. eff., mean repression of genes, microarray” value [1] was 87.7% and the “Max. eff., activation of PAI-1” value [2] was 55%. For the same compound, the ED50 (LPS-induced TNFα release) was 0.5 mg/kg, the “maximal efficacy, inhibition of LPS-induced TNFα release” value (LPS-induced TNFα release) was 90% and the Cl (Pharmacokinetics in mice; 10 μmol/kg p.o.) was 6.7 mL/min/kg. For the same compound, the Vz (Pharmacokinetics in mice; 10 μmol/kg p.o.) was 3.2 L/kg, the AUC(0-inf) (Pharmacokinetics in mice; [3]) was 10.8 µM·h and the AUC(0-t) (Pharmacokinetics in mice; [3]) was 10.1 µM·h. It also gave an MRT inf (Pharmacokinetics in mice; [3]) of 474 min, a clearance (Pharmacokinetics in mice; [3]) of 6.67 mL/min/kg and a half-life (Pharmacokinetics in mice; [3]) of 384 min. The Vd (Pharmacokinetics in mice; female, Balb/c, mouse, in vivo, iv, 4 umol/kg, 4 μmol/kg i.v., read-out: Vss) was 2.9 L/kg, the Vd (Pharmacokinetics in mice; female, Balb/c, mouse, in vivo, iv, 4 umol/kg, 4 μmol/kg i.v., read-out: Vz) was 3.4 L/kg and the C0 (Pharmacokinetics in mice; female, Balb/c, mouse, in vivo, iv, 4 μmol/kg i.v.) was 2.19 µM. For the same compound, the AUC(0-inf) (Pharmacokinetics in mice; [4]) was 24.2 µM·h, the AUC(0-t) (Pharmacokinetics in mice; [4]) was 23.2 µM·h and the Cmax (Pharmacokinetics in mice; [4]) was 2.12 µM. It also gave an MRT inf (Pharmacokinetics in mice; [4]) of 426 min, a bioavailability (Pharmacokinetics in mice; female, Balb/c, mouse, in vivo, po, 10 umol/kg, 10 μmol/kg p.o., read-out: F (% bioavailability)) of 89.7% and a half-life (Pharmacokinetics in mice; [4]) of 318 min. For the same compound, the Tmax (Pharmacokinetics in mice; mouse, in vivo, po, 10 umol/kg, 10 μmol/kg p.o.) was 30 min.

`C[C@]12C=CC(=O)C=C1CC[C@@H]1[C@@H]2[C@@H](O)C[C@@]2(C)[C@H]1CC[C@]2(O)C(=O)CO` [prednisolone, reference compound] gave an IC50 (THP-1 cells; read-out: IC50, IL-6 release) of 34.1 nM, an IC50 (THP-1 cells; read-out: IC50, IL-8 release) of 36.9 nM and an IC50 (THP-1 cells; read-out: IC50, MCP-1 release) of 69.9 nM. The “Max. eff., IL-6 repression” value (THP-1 cells) was 100%, the “Max. eff., IL-8 repression” value (THP-1 cells) was 100% and the “Max. eff., MCP-1 repression” value (THP-1 cells) was 100%. For the same compound, the “Max. eff., mean induction of genes, microarray” value [1] was 100%, the “Max. eff., mean repression of genes, microarray” value [1] was 100% and the “Max. eff., activation of PAI-1” value [2] was 100%. For the same compound, the ED50 (LPS-induced TNFα release) was 1 mg/kg, the Cl (Pharmacokinetics in mice; 20 μmol/kg p.o.) was 30 mL/min/kg and the Vz (Pharmacokinetics in mice; 20 μmol/kg p.o.) was 1.2 L/kg. The AUC(0-inf) (Pharmacokinetics in mice; [5]) was 7.1 µM·h, the AUC(0-t) (Pharmacokinetics in mice; [5]) was 7.1 µM·h and the MRT inf (Pharmacokinetics in mice; [5]) was 24 min. For the same compound, the clearance (Pharmacokinetics in mice; [5]) was 23.3 mL/min/kg, the half-life (Pharmacokinetics in mice; [5]) was 15.6 min and the Vd (Pharmacokinetics in mice; female, Balb/c, mouse, in vivo, iv, 10 umol/kg, 10 μmol/kg i.v., read-out: Vss) was 0.5 L/kg. It also gave a C0 (Pharmacokinetics in mice; female, Balb/c, mouse, in vivo, iv, 10 μmol/kg i.v.) of 18 µM, an AUC(0-inf) (Pharmacokinetics in mice; [6]) of 11 µM·h and an AUC(0-t) (Pharmacokinetics in mice; [6]) of 11 µM·h. It also gave a Cmax (Pharmacokinetics in mice; [6]) of 11.5 µM, an MRT inf (Pharmacokinetics in mice; [6]) of 48 min and a half-life (Pharmacokinetics in mice; [6]) of 24 min. For the same compound, the Tmax (Pharmacokinetics in mice; mouse, in vivo, po, 20 umol/kg, 20 μmol/kg p.o.) was 18 min.

— publication PMC3495945, “Org 214007-0: A Novel Non-Steroidal Selective Glucocorticoid Receptor Modulator with Full Anti-Inflammatory Properties and Improved Therapeutic Index” (PLoS ONE, 2012)
